Tests used:
canine platelets = test: Canine platelet aggregation in vitro (ADP, arachidonic acid, collagen); assay type: cell-based, dog; details: stimulated by 10 μm ADP, […] arachidonic acid or 9.6 micrograms/ml collagen; read-out: IC50 against canine platelet aggregation
platelets [1] = test: Ex vivo platelet aggregation in the canine coronary thrombosis study; details: dog
Procedure: For all ex vivo studies (see FIGS. 3A, 3B1, 3B2, 3B3, 3C1 and 3C2), control aggregation values were standardized to the percentages of light transmission observed in PRP and PPP samples (0% and 100%, respectively).
(§1) Animals were randomly assigned to two treatment groups: vehicle control (i.e., normal saline) or RGD peptides at various concentrations. Peptides were administered intra-atrially in both bolus and continuous injections. Each bolus injection consisted of 0.5 to 10 mg/kg and was administered 15 minutes before application of the current. A continuous infusion of the same peptide was then started immediately after completion of this initial injection. Animals received a 25 μg/kg/min to 200 μg/kg/min infusion. The anti-thrombotic effects of the peptides were monitored until 30 minutes after the occurrence of a persistent, occlusive thrombus or five hours after the initiation of electrical stimulation (whichever resulted first). If an occlusive thrombus had not developed within four hours after the initiation of current, the peptide infusion was stopped.
Platelet counts and ex vivo aggregation studies were performed one hour before and 1, 3, and 5 hours after application of anodal direct current.
Platelet aggregation was also determined ex vivo at one, three, and five hours after current application. For these studies, arachidonic acid, or collagen was again used to stimulate the platelets.

coronary thrombosis = test: Electrically induced canine coronary thrombosis, time to full occlusion; assay type: in vivo; details: dog
Procedure: Male mongrel dogs weighing 14 to 20 kg were selected based on proper aggregation of their platelets in response to arachidonic acid, collagen, and adenosine disphosphate (ADP) and based on similar weights and hemodynamic properties.
Before surgery, the animals were anesthetized with sodium pentobarbital (30 mg/kg, i.v.) and then intubated and ventilated on room air with positive pressure using a respirator (Harvard Apparatus, S. Natick, Mass.) at a volume of 30 ml/kg and a frequency of 12 breaths/min. Surgery, performed under aseptic conditions, was begun with the placement of cannulae into the left carotid artery and jugular vein for monitoring arterial blood pressure (Statham P23 pressure transducer, Gould, Inc., Cardiovascular Products, Oxnard, CA) and administering intravenous fluids.
The heart was exposed via a left thoracotomy through the 5th intercostal space. A 2-cm segment of the left circumflex coronary artery (LCCA) was isolated from surrounding tissue by blunt dissection. […] The intra-coronary electrode was constructed by attaching a 25-gauge hypodermic needle tip to a 30-gauge Teflon-insulated silver-coated copper wire. The mechanical occluder was constructed of stainless steel in a C shape with a Teflon screw (2 mm diameter) on top. It was adjusted to control vessel circumference and decrease the reactive hyperemic flow due to a 10-sec (full) occlusion by 50-70% without affecting basal coronary blood flow (FIG. 1C). A monopolar epicardial electrode was sutured to the surface of the ventricle in the region of LCCA distribution to monitor ischemic changes in the electrocardiogram (ECG). The left atrium was cannulated with polythylene tubing for administration of the peptide. Continuous recordings of blood pressure, limb lead II ECG, epicardial electrogram, and mean and phasic LCCA blood flow were obtained on a Model 7 polygraph (Grass Instrument Co., Quincy, Mass.).
One hour after the completion of surgery, a 100 micro-amp continuous anodal direct current delivered from a 9 volt nickel-cadmium battery was applied to the intimal surface of the LCCA. The anode of the battery was in series with a 250,000 ohm potentiometer and the intraluminal coronary artery electrode. The electric circuit was completed by placing the cathode in a subcutaneous site. Electrical stimulation was applied for three hours. At the conclusion of each experiment, the heart was fibrillated electrically and quickly removed, and the LCCA was dissected free as far as possible to verify the position of the implanted anodal electrode.
as §1
Coronary thrombosis was quantified as the time to full occlusion. The effects of the various peptide treatments on coronary thrombosis is illustrated in FIG. 4.

[2] = tested on: Gore-tex vascular graft thrombosis; test: Platelet and fibrinogen uptake by Gore-Tex grafts, baboon ex vivo shunt; assay type: in vivo
Procedure: Adult male baboons (weighing 16 to 25 kg) were used in these studies. These were sedated with ketamine hydrochloride (200 to 250 mg intramuscular injection) and maintained under anesthesia with sodium pentobarbital (50 to 75 mg administered intravenously as necessary).
Twenty-four hours before the ex vivo shunt was established, platelets were isolated from 500 ml of blood from the test animal and labelled with ca. 500 microcuries of indium-111 oxine (Medi+Physics, Emeryville, Calif.), which irreversibly and specifically binds to platelets with an efficiency of 50%. Immediately after labelling, these platelets were then injected back into the animal and allowed to circulate for 24 hours. Immediately before the start of the study, fibrinogen that had been isolated from the animal and labelled with iodine-131 (DuPont Nuclear, Boston, Mass.) was also injected back into the animal. Also at this time, baseline determinations of the clotting and template bleeding times were made, and blood samples were drawn for hematology studies.
To establish the ex vivo shunt, the femoral artery and vein were percutaneously cannulated with introducer catheters (KMA Inc., Mansfield, Mass.). The catheters were then connected to medical-grade, heparin-coatedsilastic tubing (2.59 mm internal diameter, (Extracorporeal Medical Specialties, Inc., King of Prussia, Pa.). […] Finally, a 5 cm-long test segment of a 4 mm (internal diameter) vascular graft was inserted at the apex of the circuit. The graft used in these studies was Gore-tex (expanded polytetrafluoroethylene, (W. L. Gore and Associates, Inc., Flagstaff, Az). An electromagnetic flow probe was then inserted into the tubing circuit to measure blood flow, which was maintained at 100 ml/min. by varying the resistance imported by a partially occluding screw clamp that was distal to the probe. Finally, a 5 cm-long test segment of a 4 mm (internal diameter) vascular graft was inserted at the apex of the circuit. The graft used in these studies was Gore-tex (expanded polytetrafluoroethylene, W. L. Gore and Associates, Inc., Flagstaff, Ariz.).
Platelet deposition onto the grafts was monitored by dynamic scanning with a gamma camera (Sigma 400, Ohio Nuclear, Inc., Sohon, Ohio), which detects the gamma radiation emitted by the ^111 indium-labelled platelets. Once the circuit was in place, the animal was placed under this camera, and blood flow was initiated. Scans were then taken at the rate of one frame per two minutes for two hours. The data from these scans were collected on a dedicated Digital MDA computer (Maynard, Mass.). […]

platelets [3] = test: Platelet aggregation on PRP of the peptide-treated baboon; assay type: in vivo; details: baboon animal 2, ADP 10 μm, 0, 1 and 2 hours
Procedure: At one- and two-hour time points, template bleeding times were measured, and blood samples were drawn to assess the hematology aggregation studies. Platelet aggregation studies were performed as described in Example V using ADP as the stimulus.
In addition, platelet aggregation studies were conducted on PRP derived from the second animal. Whole blood was drawn at three time points (0, 1 and 2 hours) of both control and experimental shunts.

platelets [4] = test: Ex vivo platelet aggregation in dogs (Example XII H); details: dog, 10 μg/mL collagen as agonist
Procedure: More importantly, several peptides in FIG. 23 were administered to dogs (according to the method of Example VII) at doses capable of inhibiting ex vivo platelet aggregation by >95%.
The bleeding time indicated in the parentheses was measured at a five-fold higher concentration of peptide. […]

GP IIb/IIIa = GP IIb/IIIa (Homo sapiens, UniProt P05106+P08514); test: Inhibition of ligand binding to GP IIb/IIIa; details: fibrinogen versus fibronectin and vitronectin
GP IIb/IIIa, sequence (P08514 32-887 limits assumed): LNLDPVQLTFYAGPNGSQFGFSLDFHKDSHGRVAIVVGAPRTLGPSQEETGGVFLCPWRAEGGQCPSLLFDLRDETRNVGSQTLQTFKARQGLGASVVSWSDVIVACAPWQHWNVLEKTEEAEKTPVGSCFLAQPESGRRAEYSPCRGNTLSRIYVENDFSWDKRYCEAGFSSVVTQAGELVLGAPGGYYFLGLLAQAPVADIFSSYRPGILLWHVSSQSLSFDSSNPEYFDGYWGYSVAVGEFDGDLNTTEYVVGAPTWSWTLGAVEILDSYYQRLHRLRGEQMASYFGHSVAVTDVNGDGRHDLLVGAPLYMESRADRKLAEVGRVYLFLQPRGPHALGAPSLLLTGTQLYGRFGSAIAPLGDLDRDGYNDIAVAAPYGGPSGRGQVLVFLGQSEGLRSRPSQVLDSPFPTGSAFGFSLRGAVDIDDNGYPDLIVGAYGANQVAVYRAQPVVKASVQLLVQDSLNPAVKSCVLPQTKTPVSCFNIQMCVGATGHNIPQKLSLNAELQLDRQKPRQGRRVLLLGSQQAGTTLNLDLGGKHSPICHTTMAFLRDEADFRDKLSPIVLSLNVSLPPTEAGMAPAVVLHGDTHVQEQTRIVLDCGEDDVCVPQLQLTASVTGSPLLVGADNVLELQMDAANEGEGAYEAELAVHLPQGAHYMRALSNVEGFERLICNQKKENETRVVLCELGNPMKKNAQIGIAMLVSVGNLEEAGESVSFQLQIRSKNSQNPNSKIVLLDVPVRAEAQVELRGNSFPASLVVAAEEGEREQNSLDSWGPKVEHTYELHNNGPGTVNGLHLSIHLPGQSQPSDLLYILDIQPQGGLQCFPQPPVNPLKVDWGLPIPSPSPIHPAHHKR
GP IIb/IIIa, sequence (P08514 891-1039 partner limits assumed): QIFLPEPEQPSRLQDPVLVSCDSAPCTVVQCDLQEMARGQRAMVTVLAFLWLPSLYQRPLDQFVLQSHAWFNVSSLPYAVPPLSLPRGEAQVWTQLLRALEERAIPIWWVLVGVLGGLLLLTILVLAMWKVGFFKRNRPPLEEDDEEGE
GP IIb/IIIa, sequence (P05106 27-788): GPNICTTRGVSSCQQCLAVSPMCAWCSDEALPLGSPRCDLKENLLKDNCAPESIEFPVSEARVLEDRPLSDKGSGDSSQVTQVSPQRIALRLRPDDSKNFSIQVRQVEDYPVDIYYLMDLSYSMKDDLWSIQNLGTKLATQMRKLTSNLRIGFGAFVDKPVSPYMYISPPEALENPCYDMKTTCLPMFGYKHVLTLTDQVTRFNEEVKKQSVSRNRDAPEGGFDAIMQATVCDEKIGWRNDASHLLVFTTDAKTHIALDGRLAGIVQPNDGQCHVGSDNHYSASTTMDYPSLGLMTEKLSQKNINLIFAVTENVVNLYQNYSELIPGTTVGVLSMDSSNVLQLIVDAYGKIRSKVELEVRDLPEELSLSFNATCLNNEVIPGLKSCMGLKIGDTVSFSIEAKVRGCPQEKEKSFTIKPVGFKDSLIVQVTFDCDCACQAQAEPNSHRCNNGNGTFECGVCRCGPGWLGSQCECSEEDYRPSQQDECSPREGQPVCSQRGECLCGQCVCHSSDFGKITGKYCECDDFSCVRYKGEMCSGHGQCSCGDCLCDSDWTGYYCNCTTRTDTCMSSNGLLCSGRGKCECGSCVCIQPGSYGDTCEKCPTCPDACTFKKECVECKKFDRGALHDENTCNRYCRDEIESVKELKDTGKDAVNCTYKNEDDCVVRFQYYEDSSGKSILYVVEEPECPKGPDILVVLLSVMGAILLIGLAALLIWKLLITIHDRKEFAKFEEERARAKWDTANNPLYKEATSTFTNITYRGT

human platelets = test: Human platelet aggregation, modified assay (Table II); assay type: cell-based; details: human PRP, citrate; aggregating agent collagen, U46619 or ADP
Procedure: In an independent study, a slightly modified aggregation assay was used. Platelet aggregation assays were performed in human platelet rich plasma (PRP). […] The blood was centrifuged at 160×g for 10 minutes at 22° C. and allowed to stand for 5 minutes after which the PRP was decanted. Platelet poor plasma (PPP) was isolated from the remaining blood after centrifugation at 2000×g for 25 minutes. The platelet count of the PRP was diluted to about 300,000 platelets per microliter with PPP.
A 225 μl aliquot of PRP plus 25 μl of either a dilution of the test inhibitor sample or a control (PBS) was incubated for 5 minutes in a Chrono-log Whole Blood Aggregometer at 37° C. An aggregating agent (collagen, 1 μg/ml; U46619, 100 ng/ml; or ADP, 17μM) was added and the transmission was recorded.

[5] = Peripheral blood flow (PBF), laser dopler flow probe, rabbit ear; assay type: in vivo; details: time 10 min, bolus dose as listed per peptide
Procedure: Unanesthetized male New Zealand White rabbits (2.5-3.5 kg) were placed in a standard rabbit restrainer. Ears were shaved and a 20G teflon catheter with flowswitch (Viggo) was placed in the medial artery, flushed with saline and locked with 1 ml of heparinized saline ([…]). A 22G catheter (Abbott) fitted with an injection cap (Medex) was placed in the marginal vein of the same ear. Saline or a GP IIb IIIa receptor antagonist, at a concentration of 1 to 3 mg/ml, was infused via the venous catheter. At time 0, 41% of the dose was given as a bolus over 2 minutes. The remainder was continuously infused over the following 60 minutes. Blood samples (3.2 ml) were collected into syringes without needles via the arterial catheter at -10, -5, 10, 45 and 60 minutes. […] The sample was divided into 1.5 ml aliquots and centrifuged at room temperature for 5 seconds at 12,000 G. The resulting platelet rich plasma (PRP) is used to measure ex-vivo platelet aggregation (XPA). […]
In an alternative series of experiments, (Table 2) PBF was measured quantitatively with a laser dopler flow probe (Perimed). The probe was positioned securely over the vascular bed of one ear and flow monitored continuously. Each inhibitor was infused and CBT measured in the opposing ear. No arterial catheter was placed for blood sampling, consequently XPA […] in these animals. […]

platelets [6] = test: Thrombin-stimulated platelet aggregation (Table I); details: read-out: Thrombin Stimulated Aggregation; thrombin 2 U/ml, gel-filtered platelets, 37° C.
Procedure: (§2) Briefly, the change in light transmission was measured through a stirred suspension of platelets in an aggregometer (Model 400 VS, Chrono-Log, Hayertown, Pa., USA). […] In studies using thrombin, the PRP was gel-filtered on Sepharose 2B in divalent ion-free Tyrode's solution containing 2% BSA. For all studies, the reference standard was platelet-poor plasma, which was obtained by centrifuging PRP at 1000×g for 5 min.
(§3) All aggregation studies were performed at 37° C. with a constantly stirred suspension of 3×10^8 platelets/ml. (Platelet count was determined with the aid of a hemacytometer.) Peptides and stimulants were added to these suspensions in 1% dilutions. The PRP and gel-filtered platelets were used within three hours from the time of blood collection.
(§4) Peptide anti-aggregation potencies were determined from dose-responsive curves for the inhibition of the maximum aggregation responses stimulated by physiologic doses of ADP (10 μm) and thrombin (2 U/ml).

platelets [7] = test: ADP-stimulated platelet aggregation in platelet-rich plasma (Table I); details: read-out: ADP-Stimulated Aggregation; ADP 10 μm, citrated platelet-rich plasma, 37° C.; * concentrations unconfirmed by amino acid composition analysis
Procedure: as §2, §3, §4

[8] = baboon animal 1, two bolus IV injections of 10 mg/kg
[9] = baboon animal 2, 10 mg/kg bolus IV then 10 mg/kg/hr infusion for two hours

Row | Substance | IC50 (canine platelets) [nM] | ex vivo ADP-stimulated aggregation (platelets [1]; 10 mg/kg injected, 1, 3 and 5 h) | coronary thrombosis, time to full occlusion (coronary thrombosis; 10 mg/kg) | reduction in 111In-platelet uptake by graft [2, 8] [%] | reduction in 131I-fibrinogen uptake by graft [2, 8] [%] | reduction in labelled fibrinogen uptake by graft [2, 9] [%] | reduction in labelled platelet uptake by graft [2, 9] [%] | platelet aggregation in PRP (platelets [3]) | ex vivo platelet aggregation inhibited (platelets [4]) [%] | differential inhibition of ligand binding to GP IIb/IIIa (GP IIb/IIIa) | IC50 (human platelets) [µM] | ex vivo platelet activation by collagen (platelets [1]; 5 mg/kg injection) | ex vivo platelet response to ADP and AA (platelets [1]; 5 mg/kg injection, all three time points) | ex vivo platelet aggregation by ADP, AA and collagen (platelets [1]; 10 mg/kg injection) | ex vivo platelet responsiveness (platelets [1]; 10 mg/kg, five-hour point) | coronary thrombosis, time to full occlusion (coronary thrombosis; 5 mg/kg) | thrombus formation (coronary thrombosis; 5 mg/kg, circulating platelet levels one-third of normal) | PBF (units) [5] [units] | IC50 (platelets [6]) [nM] | IC50 (platelets [7]) [nM]
1 | G(Pen)GHRGDLRCA [Peptide 2G] | 15000 to 30000 | substantially inhibited | did not significantly influence this frequency | 90 | 79 | 78 | 84 | completely unresponsive |  |  |  |  |  |  |  |  |  |  |  | 
2 | Ac-CNPRGD(O-Me-Y)RCNH2 [Peptide 8X] |  |  |  |  |  |  |  |  | > 95 | inhibits the binding of fibrinogen to GP IIb/IIIa more than it inhibits the binding of fibronectin and vitronectin to the same integrin |  |  |  |  |  |  |  |  |  | 
3 | R(Pen)GHRGDWRCR [Peptide 4Q] | 1500 to 5000 |  | completely prevented occlusion for the full five-hour experimental period |  |  |  |  |  |  |  | 3.3 | near-maximal inhibition | completely unresponsive | prevented platelet aggregation by all three stimuli at one- and three-hour time points | platelet responsiveness was slightly improved | significantly prolonged the time to occlusion | able to prevent thrombus formation | 9 | 1200 | 1300
